Experimental data reported in patent US6818651B2, “(Dihydro) isoquinoline derivatives as phosphodiesterase inhibitors” (Altana Pharma AG, priority 2000, dated 2004).

Each compound was assayed against T1, recombinant PDE7A1 (Homo sapiens, UniProt Q13946) (assay: Inhibition of PDE7 activity, modified SPA (scintillation proximity assay) test). Conditions: recombinant PDE7A1 (1000×g supernatant of SF21 cells), 0.5 μM cAMP, [3H]cAMP SPA, 37° C.; read-out: −log IC50 (inhibition of PDE7 activity) (converted).
T1 construct: made in house; host or cells: SF21 insect cells (baculovirus; virus made in SF9)
Assay type: biochemical
Source text: Cloning and expression of PDE7: The cDNAs for PDE7A1 and 7A2 (GenBank Acc-: L12052 and u67932, respectively) were isolated, using RT-PCR, from total cellular RNA derived from the T cell line CCRF-CEM and cloned into the cloning vector pCR2.1 (Invitrogen, Groningen, NL) under standard conditions (the manufacturer's instructions). For expression in insect cells, the cDNAs were subcloned into the baculo expression vector pCRBac (Invitrogen, Groningen, NL).
The recombinant baculoviruses were prepared, by means of homologous recombination in SF9 insect cells, by cotransfecting the plasmids containing baculovirus DNA (wild type, wt) Bac-N-Blue (Invitrogen, Groningen, NL) for PDE7A1 and containing Baculo-Gold DNA (Pharmingen, Hamburg) using a standard protocol (Pharmingen, Hamburg). Wt virus-free recombinant virus supernatants were selected using plaque assay methods. After that, high-titre virus supernatants were prepared by amplifying 3 times. For determining the enzyme activities, the PDEs were expressed in SF21 cells by infecting 2×10^6 cells/ml with an MOI (multiplicity of infection) ≈5 in serum-free SF900 medium (Life Technologies, Paisley, UK) in spinner flasks. The cells were cultured at 28° C., and at a rotationall speed of 75 rpm, for 48 hours, after which they were pelleted for 5-10 min at 1000 g and 4° C. and then resuspended in 1×PBS at a concentration of 1-3×10^6 cells/ml. The protein content was determined by the Bradford method (BioRad, Munich) using BSA as the standard.
The SF21 insect cells are resuspended, at a concentration of approx. 10^7 cells/ml, in ice-cold (4° C.) homogenization buffer (20 mM Tris, pH 8.2, containing the following additions: 140 mM NaCl, 3.8 mM KCl, 1 mM EGTA, 1 mM MgCl2, 1 mM β-mercaptoethanol, 2 mM benzamidine, 0.4 mM Pefablock, 10 μM leupeptin, 10 μM pepstatin A, 5 μM trypsin inhibitor) and disrupted by ultrasonication. The homogenate is then centrifuged for 10 min at 1000×g and the supernatant is stored at −80° C. until subsequent use (see below).
The PDE7 activity was inhibited by said compounds in a modified SPA (scintillation proximity assay) test, supplied by Amersham Pharmacia Biotech (see procedural instructions “Phosphodiesterase [3H]cAMP SPA enzyme assay, code TRKQ 7090”), carried out in 96-well microtitre plates (MTPs). The test volume is 100 μl and contains 20 mM Tris buffer (pH 7.4), 0.1 mg of BSA (bovine serum albumin)/ml, 5 mM Mg^2+, 0.5 μM cAMP (including about 50,000 cpm of [3H]cAMP), 2 μl of the respective substance dilution in DMSO and sufficient recombinant PDE7A1 (1000×g supernatant, see above) to ensure that 15-20% of cAMP is converted under said experimental conditions. After a preincubation of 5 min at 37° C., the reaction is started by adding a substrate (cAMP) and the assays are incubated for a further 15 min; after that, they are stopped by adding SPA beads (50 μl). In accordance with the manufacturer's instructions, the SPA beads had previously been resuspended in water and diluted 1:3 (v/v) and added to IBMX (3 mM). After the beads have been sedimented (>30 min), the MTPs are analyzed in commercially available measuring appliances and the corresponding IC50 values of the compounds for the inhibition of PDE7 activity are determined from concentration-effect curves by means of non-linear regression.
The inhibitory values [inhibitory concentration as −logIC50 (mol/l)] which were determined for the compounds according to the invention are shown in the following table 1, in which the numbers of the compounds correspond to the numbers of the examples.

T1 sequence (Q13946 whole entry): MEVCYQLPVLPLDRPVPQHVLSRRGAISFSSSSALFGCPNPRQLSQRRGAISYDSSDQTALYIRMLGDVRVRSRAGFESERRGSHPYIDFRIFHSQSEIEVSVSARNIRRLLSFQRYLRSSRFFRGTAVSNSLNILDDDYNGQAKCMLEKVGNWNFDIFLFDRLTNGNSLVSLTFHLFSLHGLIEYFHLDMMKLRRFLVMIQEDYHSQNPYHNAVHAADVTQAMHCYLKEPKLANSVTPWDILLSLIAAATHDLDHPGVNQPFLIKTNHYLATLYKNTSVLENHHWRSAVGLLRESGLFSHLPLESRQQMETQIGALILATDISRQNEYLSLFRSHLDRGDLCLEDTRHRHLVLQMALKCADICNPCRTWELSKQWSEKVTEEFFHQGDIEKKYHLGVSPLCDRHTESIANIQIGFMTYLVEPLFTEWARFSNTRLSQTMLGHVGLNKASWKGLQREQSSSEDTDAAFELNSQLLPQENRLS

**Q.** Which IC50 does the source give for `O=S(=O)(Nc1ccc(C2=NCCc3ccc(F)cc32)cc1)c1ccc2ccccc2c1` [Compound 4e, 1-[4-(Naphthalene-2-sulfonamido)phenyl]-7-fluoro-3,4-dihydroisoquinoline] here?
**A.** The IC50 was 0.389 µM.

**Q.** With `COc1cc(C2=NCCc3ccccc32)ccc1NS(=O)(=O)c1ccc(-c2ccon2)s1` [Compound 2a, 1-[4-(5-(Isoxazol-3-yl)-thiophene-2-sulfonamido)-3-methoxyphenyl]-3,4-dihydroisoquinoline] as the compound, how does the IC50 read?
**A.** Its IC50 is 0.295 µM.

**Q.** How did the IC50 turn out when `O=S(=O)(Nc1ccc(C2=NCCc3ccc(F)cc32)cc1)c1cccc(C(F)(F)F)c1` [Compound 4c, 1-[4-(3-Trifluoromethylbenzenesulfonamido)phenyl]-7-fluoro-3,4-dihydroisoquinoline] was run?
**A.** The IC50 was 0.257 µM.

**Q.** `COc1cc(C2=NCCc3ccc(Cl)cc32)ccc1NS(=O)(=O)c1ccc(OC(F)(F)F)cc1` [Compound 1a, 1-[4-(4-Trifluoromethoxybenzenesulfonamido)-3-methoxyphenyl]-7-chloro-3,4-dihydroisoquinoline] was tested. Which IC50 did it give?
**A.** Its IC50 is 0.0324 µM.

**Q.** How did the IC50 turn out when `COc1cc(C2=NCCc3ccc(Cl)cc32)ccc1NS(=O)(=O)c1ccc(C)cc1` [Compound 1b, 1-[4-(4-Methylbenzenesulfonamido)-3-methoxyphenyl]-7-chloro-3,4-dihydroisoquinoline] was run?
**A.** The IC50 was 0.123 µM.

**Q.** How did the IC50 turn out when `O=S(=O)(Nc1ccc(C2=NCCc3ccc(Cl)cc32)cc1)c1cc(Br)c(Cl)s1` [Compound 6m, 1-[4-(4-Bromo-5chlorothiophene-2-sulfonamido)phenyl]-7-chloro-3,4-dihydroisoquinoline] was run?
**A.** The IC50 was 0.38 µM.

**Q.** Which IC50 does the source give for `O=S(=O)(C=Cc1ccccc1)Nc1ccc(C2=NCCc3ccc(Cl)cc32)cc1` [Compound 6h, 1-[4-(2-Phenylethenesulfonamido)phenyl]-7-chloro-3,4-dihydroisoquinoline] here?
**A.** The IC50 was 0.245 µM.
